Source: patent US20230413825A1, “SHORT AND LONG TERM DIS[…] ALCOHOL AND ZINC PYRITHIONE” (CAO Group, Inc., priority 2020, published 2023)
Like-named read-outs stand apart in the source and are kept apart here.

Description: The present invention also utilizes the salts of pyrithione, especially the zinc salt.

Q: For Zinc pyrithione, which solubility (in solution in an admixture of alcohols and water) is on record?
A: about 60 ppm

Q: And the solubility (in water)?
A: about 8 ppm
